Laboratory results published in paper PMC11509018, “Evaluation of the Role of Tanshinone I in an In Vitro System of Charcot-Marie-Tooth Disease Type 2N” (International Journal of Molecular Sciences, 2024).
Positions count from the first letter of the chain named.

Experiments:
AlaRS^E337K = molecular target: T1, AlaRS^E337K (Homo sapiens, UniProt P49588, E337K); experiment: Biolayer interferometry (BLI); type: binding; conditions: immobilized AlaRS^E337K, mean ± SD, triplicate
T1 construct: made in house; host or cells: E. coli BL21 (DE3), pET-21a
T1 sequence (P49588 1-968 E337K): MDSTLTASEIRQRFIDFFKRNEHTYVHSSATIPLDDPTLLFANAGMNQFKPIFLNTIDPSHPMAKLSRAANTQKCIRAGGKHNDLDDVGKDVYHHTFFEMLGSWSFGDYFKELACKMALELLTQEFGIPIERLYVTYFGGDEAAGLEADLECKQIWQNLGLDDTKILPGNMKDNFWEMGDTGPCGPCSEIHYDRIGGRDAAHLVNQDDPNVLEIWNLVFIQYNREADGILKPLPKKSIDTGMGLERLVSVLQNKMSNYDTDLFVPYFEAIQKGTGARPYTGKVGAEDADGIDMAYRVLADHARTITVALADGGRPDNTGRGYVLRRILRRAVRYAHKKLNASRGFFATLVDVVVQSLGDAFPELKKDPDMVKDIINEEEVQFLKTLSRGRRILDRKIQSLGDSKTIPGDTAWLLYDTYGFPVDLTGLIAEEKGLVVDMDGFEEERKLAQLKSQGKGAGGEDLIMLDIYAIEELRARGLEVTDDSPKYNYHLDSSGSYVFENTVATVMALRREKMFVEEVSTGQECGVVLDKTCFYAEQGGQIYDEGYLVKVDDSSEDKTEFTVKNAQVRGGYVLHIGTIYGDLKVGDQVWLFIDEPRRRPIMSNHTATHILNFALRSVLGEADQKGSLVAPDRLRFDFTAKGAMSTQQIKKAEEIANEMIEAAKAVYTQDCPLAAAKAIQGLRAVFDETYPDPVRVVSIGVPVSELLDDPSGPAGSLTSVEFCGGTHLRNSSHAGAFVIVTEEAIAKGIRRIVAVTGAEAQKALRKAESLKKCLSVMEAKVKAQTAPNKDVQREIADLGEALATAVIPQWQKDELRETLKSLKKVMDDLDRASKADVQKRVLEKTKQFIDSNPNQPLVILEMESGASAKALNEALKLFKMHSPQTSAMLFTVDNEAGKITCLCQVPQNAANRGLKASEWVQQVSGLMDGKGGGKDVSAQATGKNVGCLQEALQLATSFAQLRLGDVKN
Protocol: (§1) Furthermore, we examined the interaction of Tanshinone I with additional AlaRS CMT mutants capable of binding to Nrp1 and causing conformational changes by BLI and proteolysis assays on additional related mutants. […] To further quantify the binding of small molecules to mutant proteins, binding experiments with AlaRS^R329H proteins and small molecules were conducted using an Octet R8 system (ForteBio, Fremont, CA, USA). Purified His-tagged AlaRS^R329H proteins (500 μg/mL) were captured on Ni-NTA biosensors (ForteBio, Fremont, CA, USA), achieving a saturation response of 4–5 nm after 300 s. The biosensors were then transferred to Octet buffer (PBS with 0.01% Tween 20) for 180 s to remove loosely bound, nonspecific proteins and to establish a stable baseline. Following this, the sensors were immersed in diluted Tanshinone I (2.5–100 μM in assay buffer) for 120 s to record the association signal, and then transferred back into Octet buffer to monitor the dissociation signal for 120 s. Reference wells containing buffer instead of Tanshinone I were included to correct for baseline shifts. Additionally, a parallel set of Ni-NTA sensors in buffer served as negative reference controls to account for nonspecific binding of the compounds to the biosensor surface. The data were processed using a double reference subtraction protocol to eliminate nonspecific signals, background noise, and signal drifts caused by biosensor variability. All assays were performed in 96-well black plates with a total volume of 200 μL per well at 30 °C. Data analysis, including correction and curve fitting, was carried out using Octet® Analysis Studio 12.2.2.26. The experiment was repeated three times.

AlaRS^N71Y = molecular target: T2, AlaRS^N71Y (Homo sapiens, UniProt P49588, N71Y); experiment: Biolayer interferometry (BLI); type: binding; conditions: immobilized AlaRS^N71Y, mean ± SD, triplicate
T2 construct: made in house; host or cells: E. coli BL21 (DE3), pET-21a
T2 sequence (P49588 1-968 N71Y): T1 sequence (P49588 1-968 E337K) with N71Y, K337E
Protocol: as §1

Kd (AlaRS^E337K): 19.2 ± 4.2 µM
Kd (AlaRS^N71Y): 37.8 ± 6.2 µM
Compound: Cc1coc2c1C(=O)C(=O)c1c-2ccc2c(C)cccc12 [Tanshinone I]
